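Step 1: Grow cells in 96-well plates. Step 2: Expose to compound for 48 hours at 5 concentrations. Step 3: Interpolate endpoints linearly; if unreached, use highest concentration. GI50 = concentration required for 50% inhibition of growth. TGI denotes the concentration required for complete inhibition of growth.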 Where a SMILES comes first, the peptide text is derived from it. The star is where a group is joined. Palmitoyl = CCCCCCCCCCCCCCCC(=O)*
Legend:
Test in all cases: NCI anticancer screen, dose series, 48 h
A549 NSCLC = tested on: A549 NSCLC
SK-MEL-2 melanoma = tested on: SK-MEL-2 melanoma
HL-60(TB) leukemia = tested on: HL-60(TB) leukemia
SF-268 CNS = tested on: SF-268 CNS
NCI-H460 lung = tested on: NCI-H460 lung
SNB-19 CNS = tested on: SNB-19 CNS
UO-31 renal = tested on: UO-31 renal
SK-MEL-5 melanoma = tested on: SK-MEL-5 melanoma
OVCAR-4 ovarian = tested on: OVCAR-4 ovarian
RPMI-8226 leukemia = tested on: RPMI-8226 leukemia

| Compound | TGI (A549 NSCLC) [µM] | TGI (SK-MEL-2 melanoma) [µM] | TGI (HL-60(TB) leukemia) [µM] | TGI (SF-268 CNS) [µM] | TGI (NCI-H460 lung) [µM] | TGI (SNB-19 CNS) [µM] | TGI (UO-31 renal) [µM] | TGI (SK-MEL-5 melanoma) [µM] | TGI (OVCAR-4 ovarian) [µM] | TGI (RPMI-8226 leukemia) [µM] | GI50 (SK-MEL-2 melanoma) [nM] | GI50 (SF-268 CNS) [nM] | GI50 (SNB-19 CNS) [nM] | GI50 (HL-60(TB) leukemia) [µM] | GI50 (NCI-H460 lung) [µM] | GI50 (UO-31 renal) [µM] | GI50 (SK-MEL-5 melanoma) [µM] | GI50 (OVCAR-4 ovarian) [µM] | GI50 (RPMI-8226 leukemia) [µM] | GI50 (A549 NSCLC) [µM] |
| --- | --- | --- | --- | --- | --- | --- | --- | --- | --- | --- | --- | --- | --- | --- | --- | --- | --- | --- | --- | --- |
| CON(C)c1nc(N(C)OC)nc(N(C)OC)n1 | > 10 | > 10 | > 10 | > 10 | > 10 | > 10 | > 10 | > 10 | > 10 | > 10 | – | – | – | – | – | – | – | – | – | – |
| Nc1nc(O)c2ncn([C@H]3CC[C@@H](CO)O3)c2n1 | – | > 100 | – | – | > 100 | > 100 | > 100 | > 100 | > 100 | > 100 | – | – | – | – | – | – | – | – | – | – |
| COC(=O)C1=C(OC(=O)/C(=C/c2ccc(Cl)cc2)c2ccc(Cl)cc2)C(C(=O)OC)[C@]2(O)[C@@H](C(=O)OC)[C@H]1C[C@@H](c1ccccc1)[C@@H]2C(=O)OC (some centres not stated) | > 100 | > 100 | > 100 | > 100 | > 100 | > 100 | – | > 100 | > 100 | – | – | – | – | – | – | – | – | – | – | – |
| CC(N)Cc1ccc(Cl)c(Cl)c1 (configuration not stated) | > 100 | 37.6 | 42.4 | > 100 | 97.1 | > 100 | 66.3 | 31 | > 100 | > 84.6 | – | – | – | – | – | – | – | – | – | – |
| Cc1c(-c2ccccc2)[nH]c2cc(Cl)ccc2c1=O | > 100 | > 100 | > 100 | > 100 | > 100 | > 100 | – | > 100 | 66.3 | > 100 | – | – | – | – | – | – | – | – | – | – |
| C/C(=N/N=C(\[O-])c1ccncc1)C(F)(F)F.C/C(=N\N=C(/[O-])c1ccncc1)C(F)(F)F.[Ni+2] | – | – | > 1 | > 1 | – | > 1 | – | – | – | – | > 1000 | > 1000 | > 1000 | – | – | – | – | – | – | – |
| COc1cc(C(C)O)c[n+](Cc2ccccc2)c1 (configuration not stated) | > 100 | > 100 | > 100 | > 100 | > 100 | > 100 | > 100 | > 100 | > 100 | > 100 | – | – | – | – | – | – | – | – | – | – |
| Nc1[nH]c(=O)nc2c1cnn2C1CCCCO1 (configuration not stated) | > 100 | > 100 | > 100 | > 100 | > 100 | > 100 | > 100 | > 100 | > 100 | > 100 | – | – | – | – | – | – | – | – | – | – |
| CC(C)C(C(=O)O)N1C(=O)c2ccccc2C1=O (configuration not stated) | > 100 | 0.612 | > 100 | > 100 | > 100 | > 100 | – | > 100 | > 100 | > 100 | – | – | – | – | – | – | – | – | – | – |
| CCN1CCC(O)(/C=C/c2ccccc2C)C(C(=O)/C=C/c2ccccc2C)C1 (configuration not stated) | 12.8 | 5.57 | 4.85 | 14 | 3.18 | – | 3 | 2.9 | 12.5 | – | – | – | – | – | – | – | – | – | – | – |
| CC12C=CC(=O)C=C1CCC1C3CCC(O)(C(=O)CO)C3(C)CC(O)C12F (configuration not stated) | > 100 | > 100 | > 100 | > 100 | > 100 | > 100 | > 100 | > 100 | > 100 | > 100 | – | – | – | – | – | – | – | – | – | – |
| CN1C(c2ccccc2)CC(=O)C(N)C1c1ccccc1 (configuration not stated) | > 100 | 41.1 | 56.7 | > 100 | 55.6 | > 100 | > 96.3 | 33.6 | > 100 | 44.1 | – | – | – | – | – | – | – | – | – | – |
| c1ccc(-c2nc(N3CCNCC3)c3oc(-c4ccccc4)nc3n2)cc1 | – | 5.42 | 4.26 | 3.46 | 3.38 | 3.15 | 2.85 | 3.2 | 3.19 | 5.16 | 2310 | 1730 | 1720 | 2.03 | 1.75 | 1.49 | 1.77 | 1.68 | 2.03 | – |
| CCCC1CCC(=C2C(=O)CCC2=O)O1 (configuration not stated) | > 100 | > 100 | > 100 | > 100 | > 100 | > 100 | > 100 | – | > 100 | > 100 | – | – | – | – | – | – | – | – | – | – |
| C=C(C)C1Cc2c(c3ccccc3n(C)c2=O)O1 (configuration not stated) | – | > 100 | > 100 | > 100 | > 100 | > 100 | > 100 | > 100 | – | > 100 | – | – | – | – | – | – | – | – | – | – |
| CCCCCCCCCCCCCCCC(=O)N1CCCC1C(=O)NCC(=O)NC(Cc1ccccc1)C(=O)NC(C)C(=O)NC(CO)C(=O)NC(Cc1ccc(O)cc1)C(=O)NC(CCCCN)C(=O)NC(CC(C)C)C(=O)NC(CCCN=C(N)N)C(=O)N1CCCC1C(=O)NCC(N)=O (configuration not stated) (Palmitoyl-PGFASYKLRPG-NH2; configuration not given here) | 40.8 | > 100 | 31 | 36 | 61.4 | 39.7 | 52.1 | > 100 | 92.6 | 16.4 | 34600 | 16300 | 18400 | 17.2 | 23.5 | 21.9 | 33.4 | 33.8 | 4.36 | 21.3 |
| Cn1c(-c2ccccc2)cc(-c2cccs2)c1-c1cccs1 | > 100 | > 100 | > 100 | > 100 | > 100 | > 100 | > 100 | > 100 | > 100 | > 100 | – | – | – | – | – | – | – | – | – | – |
